Test results published in patent US5840859A, “(Aminostyryl)pyridinium compounds for radiolabelling cell membranes” (Research Corporation Technologies, Inc., priority 1996, dated 1998).

Tests used:
mixed leukocytes = assay: Mixed leukocyte labeling yield; type: cell-based, canine; settings: for Mixed leukocyte labeling yield: 125I labeled, average, 10-30 μCi, 250-325 Ci/mmol
Method: Labeling of mixed leukocytes (harvested from 20 mL canine blood) with 4a-d was performed using five different procedures: 1) labeling in Diluent C (a commercial non-ionic cell labeling media developed by Zynaxis Co. that is not approved for human use) after two saline washes of the cell pellet; 2) labeling in saline after two saline washes of the cell pellet; 3) labeling in saline with no saline washes of the cell pellet; 4 and 5) labeling in ether 10% or 100% platelet poor plasma (PPP).
Unwashed mixed leukocytes in 1.5 mL 10% PPP in saline were also tested. […]
This was evaporated to dryness under vacuum in a speed vac and reconstituted into 30 ul ethanol. Forty milliliters of canine blood was drawn into a 60 mL syringe containing 6.5 mL acetate-citrate-dextrose solution. To this was added 5.5 mL 2% methyl cellulose in saline. The contents of the syringe were gently mixed by several inversions of the syringe and the syringe placed vertically, needle end up, for 45 minutes to allow the red blood cells to settle. The plasma was drawn off and placed into a 50 mL Falcon tube. The tube was centrifuged at 1100 rpm for 15 minutes to pellet the leukocytes. The plasma was removed and the cells resuspended in 2 mL saline. In a 1 mL plastic microcentrifuge was placed 0.5 mL saline. […] The cells were then underlayered with 7.5 mL of platelet poor plasma and centrifuged at 1600 rpm for seven minutes to pellet the cells. The supernatant was removed, the cells resuspended in 10 mL saline, and transferred to a new tube. The supernatant, cells, and labeling tube were counted for radioactivity. The cells were centrifuged again at 1600 rpm for 7 minutes, the supernatant removed, and the cells resuspended.
A sample of canine blood (20 mL) was drawn into a 60 mL syringe containing 3 mL acetate-citrate-dextrose (ACD) solution. To this was added 3 mL 2% methyl cellulose in saline. The contents of the syringe were gently mixed by several inversions, and the syringe was then placed vertically, needle end up, for 45 min to allow the red blood cells to settle. The plasma was drawn off and transferred to a 50 mL Falcon tube. The tube was centrifuged at 1100 rpm for 15 min to pellet the leukocytes. The plasma was removed and the cells resuspended in 10 mL saline. The tube was centrifuged at 1600 rpm for 7 min, the supernatant removed, and the cells resuspended in 10 mL saline and recentrifuged at 1600 rpm for 7 min. The supernatant was then removed and the cells resuspended in 2 mL Diluent C. Into a 1 mL plastic microcentrifuge tube was placed 0.5 mL Diluent C. […] The indium complex in Diluent C was immediately added to the leukocytes and the cells were placed vertically on a Nutator rocking apparatus and rocked gently for 30 min at room temperature. The cells were then underlayered with 5 mL of platelet poor plasma and centrifuged at 1600 rpm for 7 min to pellet the cells. The supernatant was removed, the cells resuspended in 10 mL saline, and transferred to a new tube. The supernatant, cells, and labeling tube were counted for radioactivity. The cells were centrifuged again at 1600 rpm for 7 min, the supernatant removed, and the cells resuspended.

[1] = Viability of labeled lymphocytes (Trypan Blue exclusion test); type: cell-based, dog and rat; settings: before and after radiolabeling
From the text: (§1) Peripheral blood lymphocytes (PBLs) from dogs and rats as well as rat splenic lymphocytes were labeled in high yields with either 4a or 4b (Table 2). Viability of labeled lymphocytes was >90% both before and after radiolabeling (Trypan Blue exclusion test).

rat splenic lymphocytes [2] = assay: Lymphocyte labeling yield, rat splenic lymphocytes; type: cell-based
Method: as §1
A 400 g Sprague-Dawley rat was sacrificed to remove the spleen (1.133 g). The spleen was perfused with phosphate buffered saline to remove the lymphocytes. The lymphocytes in 10 mL PBS were split into two equal portions and each portion was layered onto 5 mL of Lympholyte-Rat (Cedar Lane Laboratories Limited, Ontario, Canada) in a separate 15 mL centrifuge tube. The tubes were centrifuged at 2700 rpm for 20 minutes at room temperature. The lymphoctyes appeared as a layer at the interface of the saline and Lympholyte-Rat layers. The saline layer was removed and discarded. The lymphocyte containing layer from each tube was removed and transferred to a single 50 mL Falcon tube. To this tube was added 10 mL saline and the tube centrifuged for 7 minutes at 1600 rpm. The supernatant was removed, the cells resuspended in 10 mL saline, and centrifuged at 1600 rpm for 7 minutes. The supernatant was removed and the cells suspended in 1 mL saline. […] […] To these cells was added 20 ul of an ethanolic solution of 3-[4-[2-(N,N-dihexylamino)phenyl]ethyenyl]pyridino-E-1-[^125 I]-iodo-propene (15.6 uCi) dissolved in 500 ul of saline. The cells were place vertically on a Nutator rocking apparatus and rocked gently for 20 minutes at room temperature. The cells were then underlayered with 7.5 mL of saline and centrifuged at 1600 rpm for seven minutes to pellet the cells. The supernatant was removed, the cells resuspended in 10 mL saline, and transferred to a new tube. The supernatant, cells, and labeling tube were counted for radioactivity. The cells were centrifuged again at 1600 rpm for 7 minutes, the supernatant removed, and the cells resuspended. After the second centrifugation, 11.9uCi (77%) of ^131 I was bound to the lymphocytes. After labeling, 12% of the cells were dead by the trypan blue exclusion test.

[3] = Rat splenic lymphocyte survival after labeling (Trypan blue exclusion test); type: cell-based; settings: rat, splenic lymphocytes; Example 11, trypan blue; 12% dead before labeling; read-out: dead cells after labeling
Method: (§2) A 400 g Sprague-Dawley rat was sacrificed to remove the spleen (1.133 g). The spleen was perfused with phosphate buffered saline to remove the lymphocytes. The lymphocytes in 10 mL PBS were split into two equal portions and each portion was layered onto 5 mL of Lympholyte-Rat (Cedar Lane Laboratories Limited, Ontario, Canada) in a separate 15 mL centrifuge tube. The tubes were centrifuged at 2700 rpm for 20 minutes at room temperature. The lymphoctyes appeared as a layer at the interface of the saline and Lympholyte-Rat layers. The saline layer was removed and discarded. The lymphocyte containing layer from each tube was removed and transferred to a single 50 mL Falcon tube. To this tube was added 10 mL saline and the tube centrifuged for 7 minutes at 1600 rpm. The supernatant was removed, the cells resuspended in 10 mL saline, and centrifuged at 1600 rpm for 7 minutes. The supernatant was removed and the cells suspended in 1 mL saline. Using a hemocytometer, a total of 5 million lymphocytes were counted. […] To these cells was added 20 ul of an ethanolic solution of 3-[4-[2-(N,N-dihexylamino)phenyl]ethyenyl]pyridino-E-1-[^125 I]-iodo-propene (15.6 uCi) dissolved in 500 ul of saline. The cells were place vertically on a Nutator rocking apparatus and rocked gently for 20 minutes at room temperature. […] The supernatant, cells, and labeling tube were counted for radioactivity. […]

rat splenic lymphocytes [4] = assay: as above; type: cell-based; settings: Example 11, trypan blue
Method: as §2

mononuclear leukocytes = assay: Mononuclear leukocyte labeling yield; type: cell-based; settings: harvested from 20 mL canine blood via isolymph method
Method: Using ^125 I-4b and ^131 I-4b, mononuclear leukocytes harvested from 20 mL canine blood via the isolymph method (sodium diatrizoste and Ficol 400, d=1.077) were labeled in 77% and 85% yields, respectively. Thus, the present compounds can label both lymphocytes and mixed leukocytes in high yields, and that the latter can be used to image sites of focal inflammation.

[5] = test system: sodium urate induced abscess in the stifle joint; assay: Localization of labeled leukocytes in dogs having a sodium urate induced abscess in the stifle joint (aspirate, gamma camera images)
From the text: Mixed leukocytes labeled with 4b and ^111 In-oxine labeled mixed leukocytes were compared in dogs having a sodium urate-induced inflammation in the left stifle joint. […]

## CCCCN(CCCC)c1ccc(/C=C/c2cc[n+](C/C=C/[125I])cc2)cc1 [Compound 4a]
Mixed leukocytes; 10% PPP in saline
  Mixed leukocyte labeling yield: 41%
Mixed leukocytes; Diluent C
  Mixed leukocyte labeling yield: 75%
Mixed leukocytes; saline, 2 washes of pellet
  Mixed leukocyte labeling yield: 72%
Mixed leukocytes; saline, no washes of pellet
  Mixed leukocyte labeling yield: 71%
Mixed leukocytes; Diluent C, or saline with or without washes of the cell pellet
  Leukocyte labeling (in words): labeled leukocytes in high yield
[1]
  viability: > 90%
Rat splenic lymphocytes [2]; PBLs from dogs and rats and rat splenic lymphocytes
  Lymphocyte labeling (in words): high yields
Rat splenic lymphocytes [2]; Rat spleen, Lympholyte-Rat, 63-300 × 10^6 cells, PBS, 125I, average
  Lymphocyte labeling yield: 71%

## CCCCCCN(CCCCCC)c1ccc(/C=C/c2cc[n+](C/C=C/[125I])cc2)cc1 [^125 I-4b, 3-[4-[2-(N,N-dihexylamino)phenyl]ethyenyl]pyridino-E-1-[^125 I]-iodo-propene]
[3]
  cytotoxicity: 12%
Rat splenic lymphocytes [4]
  effect of labeling on cell survival: the labeling did not affect cell survival
Mixed leukocytes; 1.5 ml saline, pellet not washed
  Labeling Yield: 80%
Mixed leukocytes; 1.5 ml saline, pellet washed with 1×10 mL saline
  Labeling Yield: 84%
Mixed leukocytes; 1.5 ml saline, pellet washed with 2×10 mL saline
  Labeling Yield: 82%
Mixed leukocytes; Table 3 Experiment 1, 4b 250 Ci/mmol, Diluent C after 2 × 10 mL saline washes
  Labeling Yield: 84%
Mixed leukocytes; Table 3 Experiment 2, 4b footnotes a,c (250 / 1000 Ci/mmol)
  Labeling Yield: 88%
Mixed leukocytes; unwashed, 1.5 mL 10% PPP in saline
  Labeling Yield: 83%
Mononuclear leukocytes
  Mononuclear leukocyte labeling yield: 77%
[5]; Experiment 1
  131I/111In or 125I/111In in aspirate: 1.65
  % aspirate radioactivity cell bound: 98%
[5]; Experiment 1, injected 84 μCi 125I-4b, 500 μCi 111In-oxine, Diluent C
  % inj. dose in abscess aspirate: 0.594%
[5]; Experiment 2
  131I/111In or 125I/111In in aspirate: 6.0
  % aspirate radioactivity cell bound: 96%
[5]; Experiment 2, injected 66 μCi 125I-4b, 312 μCi 111In-oxine
  % inj. dose in abscess aspirate: 0.527%
[5]; sodium urate induced abscess, dog
  localization of labeled leukocytes in induced inflammatory site/abscess, compared with 111In-oxine (111In-labeled) leukocytes: higher degree of localization
Rat splenic lymphocytes [2]; Example 11, 5 million lymphocytes, saline, 15.6 uCi, 20 min, room temperature
  radioactivity bound to the lymphocytes (labeling yield): 77%
Rat splenic lymphocytes [2]; Example 11, of 15.6 uCi added
  radioactivity bound to the lymphocytes: 11.9 uCi
